102 molecules from ChEMBL document CHEMBL1155460, “Prediction of acetylcholinesterase inhibitors and characterization of correlative molecular descriptors by machine learning methods” (Eur J Med Chem, 2010) can be followed below.

Sequence of Acetylcholinesterase (P22303 whole entry): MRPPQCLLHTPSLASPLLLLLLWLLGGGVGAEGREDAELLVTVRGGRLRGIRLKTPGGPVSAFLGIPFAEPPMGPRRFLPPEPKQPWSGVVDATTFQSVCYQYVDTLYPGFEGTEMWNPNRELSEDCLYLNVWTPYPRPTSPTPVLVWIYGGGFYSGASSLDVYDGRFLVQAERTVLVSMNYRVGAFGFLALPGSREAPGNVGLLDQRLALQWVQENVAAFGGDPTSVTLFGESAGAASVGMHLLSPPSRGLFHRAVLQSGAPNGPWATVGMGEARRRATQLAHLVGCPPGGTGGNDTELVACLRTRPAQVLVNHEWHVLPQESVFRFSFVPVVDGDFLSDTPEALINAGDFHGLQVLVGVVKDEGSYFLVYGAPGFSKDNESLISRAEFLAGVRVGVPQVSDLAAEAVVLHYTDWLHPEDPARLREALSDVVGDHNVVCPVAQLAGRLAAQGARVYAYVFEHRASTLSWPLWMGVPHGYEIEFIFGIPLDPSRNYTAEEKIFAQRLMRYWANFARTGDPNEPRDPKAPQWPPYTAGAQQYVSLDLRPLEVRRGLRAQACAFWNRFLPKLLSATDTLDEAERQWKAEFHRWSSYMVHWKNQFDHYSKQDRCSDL

This experiment has as its target Acetylcholinesterase (Homo sapiens, UniProt P22303).
`CN(CCOCCNC(=S)NC(=O)c1ccccc1)Cc1ccccc1` yielded an IC50 of 0.12 µM. The molecule `CN(CCOCCNC(=S)Nc1ccc(OC(F)(F)F)cc1)Cc1ccccc1` displayed an IC50 of 1 µM. As to `CN(CCOCCCNC(=S)NC(=O)c1ccccc1)Cc1ccccc1`, inhibition was half-maximal at 1.1 µM (IC50). `CN(CCOCCNC(=S)NC(=O)c1ccc(-c2ccccc2)cc1)Cc1ccccc1` returned an IC50 of 0.23 µM. With `Cc1ccc(C(=O)NC(=S)NCCOCCN(C)Cc2ccccc2)cc1`, the 50% inhibitory concentration (IC50) is 0.077 µM. Consider `O=C1c2ccc([N+](=O)[O-])cc2C(=O)N1CCC1CCN(Cc2ccccc2)CC1`, for which the IC50 is 0.0125 µM. `O=C1c2ccccc2C(=O)N1CCC1CCN(Cc2ccccc2)CC1` came in with an IC50 of 0.08 µM. `CCCCCCNC(=O)Oc1cccc(CN(CC)CCCOc2ccc3c(=O)c4ccccc4oc3c2)c1`: the half-inhibitory concentration (IC50) is 0.16 µM.

`O=C(CCC1CCN(Cc2ccccc2)CC1)c1ccc2c(c1)OCO2` had an IC50 of 0.03 µM. The value for `c1ccc2c(NCCCCCCCCNc3c4c(nc5ccccc35)CCCC4)ccnc2c1` was 0.0088 µM; that for `c1ccc2c(NCCCCCCCCCNc3c4c(nc5ccccc35)CCCC4)ccnc2c1` was 0.038 µM. Regarding `FC(F)(F)c1cc(-c2ccccc2)nnc1NCCN1CCOCC1`, the IC50 was 740 µM. `Nc1cc(-c2ccccc2)nnc1NCCN1CCOCC1` showed a concentration for half-maximal inhibition (IC50) of 270 µM. With `c1ccc(-c2ccc(NCCCCCN3Cc4ccccc4CN3)nn2)cc1`, half-maximal inhibition (IC50) required 10 µM. The same measure for `CN(CCCNc1ccc(-c2ccccc2)nn1)Cc1ccccc1`: 13 µM; for `CN(CCCCCNc1ccc(-c2ccccc2)nn1)Cc1ccccc1`: 0.74 µM. As for `c1ccc(CN2CCC(Nc3ccc(-c4ccccc4)nn3)CC2)cc1`, the IC50 was 65 µM. `O=C1CNc2cc3onc(CCC4CCN(Cc5ccccc5)CC4)c3cc2C1`: the half-inhibitory concentration (IC50) came out at 0.00048 µM. In turn, `CCCCCCNC(=O)Oc1cccc(CN(C)CCCCOc2ccc3c(=O)c4ccccc4oc3c2)c1` gave a half-inhibitory concentration (IC50) of 0.1 µM.

Molecule `c1ccc(CN2CCC(CNc3ccc(-c4ccccc4)nn3)CC2)cc1` showed an IC50 of 56 µM. `CCCCCCNC(=O)Oc1cccc(CN(C)CCCCCOc2ccc3c(=O)c4ccccc4oc3c2)c1` showed a 50% inhibitory concentration (IC50) of 0.1 µM.

The molecule `OCc1cc(-c2ccccc2)nnc1NCCN1CCOCC1` returned an IC50 of 440 µM. For `NCCCCCCCNc1c2c(nc3ccccc13)CCCC2`, the half-inhibitory concentration (IC50) worked out at 0.319 µM. As to `NCCCCCCCCCNc1c2c(nc3ccccc13)CCCC2`, the IC50 worked out at 0.131 µM. As to `CN(C)CCCCCCCNc1c2c(nc3ccccc13)CCCC2`, the half-maximal inhibitory concentration (IC50) is 0.052 µM. The value for `CCCCCCNC(=O)Oc1cccc(CN(CCC)CCCOc2ccc3c(=O)c4ccccc4oc3c2)c1` was 0.4 µM; that for `CCCCCCNC(=O)Oc1cccc(CN(CCCOc2ccc3c(=O)c4ccccc4oc3c2)C(C)C)c1` was 0.17 µM.

`CCCCCCNC(=O)Oc1cccc(CN(C)CCCOc2ccc3c(=O)c4cccnc4oc3c2)c1` showed an IC50 of 0.042 µM. The molecule `CCCCNC(=O)Oc1cccc(CN(C)CCCOc2ccc3c(=O)ccoc3c2)c1` had a concentration for half-maximal inhibition (IC50) of 0.25 µM.

`NCCCCCCCCCCNc1c2c(nc3ccccc13)CCCC2`: the IC50 was 0.147 µM. The value for `NCCCCCCCCCCCCNc1c2c(nc3ccccc13)CCCC2` was 0.18 µM; that for `CN(C)CCCCCCCCNc1c2c(nc3ccccc13)CCCC2` was 0.047 µM; that for `CN(C)CCCCCCCCCNc1c2c(nc3ccccc13)CCCC2` was 0.071 µM.

`c1ccc2c(NCCCCCCCCNc3ccncc3)c3c(nc2c1)CCCC3` returned an IC50 of 0.0136 µM.

For the molecule `c1ccc(-c2ccc(NCCCN3CCc4ccccc4C3)nn2)cc1`, the IC50 came out at 35 µM. `O=C(Nc1ccccc1)c1ccc2c(c1)C(=O)N(CCC1CCN(Cc3ccccc3)CC1)C2=O` displayed an IC50 of 0.0022 µM.

Molecule `CN(CCCCNc1ccc(-c2ccccc2)nn1)Cc1ccccc1` returned an IC50 of 11 µM.

With `CCCCCCNC(=O)Oc1cccc(CN(C)CCCOc2ccc3c(=O)cc(-c4ccccc4)oc3c2)c1`, 0.068 µM corresponded to half-maximal inhibition (IC50). Turning to `CN(C)CCCCCCCCCCNc1c2c(nc3ccccc13)CCCC2`, the IC50 came to 0.045 µM. In the case of `CN(C)CCCCCCCCCCCCNc1c2c(nc3ccccc13)CCCC2`, the IC50 stood at 0.264 µM.

On to `c1ccc2c(NCCCCCCCNc3ccncc3)c3c(nc2c1)CCCC3`, for which the 50% inhibitory concentration (IC50) was determined as 0.0128 µM.

`c1ccc2c(NCCCCCCCCCNc3ccncc3)c3c(nc2c1)CCCC3` displayed a half-inhibitory concentration (IC50) of 0.083 µM. The same measure for `c1ccc2c(NCCCCCCCCCCNc3ccncc3)c3c(nc2c1)CCCC3`: 0.176 µM. With `c1ccc(-c2ccc(NCN3CCCCC3)nc2)cc1`, the IC50 was determined as 13 µM. Take `c1ccc(-c2cnc(NCN3CCCCC3)nc2)cc1`: the IC50 is 100 µM. In turn, `c1ccc(NCCCCCCCCCCCCNc2c3c(nc4ccccc24)CCCC3)cc1` had an IC50 of 0.261 µM. `c1ccc2c(NCCCCCCCNc3c4c(nc5ccccc35)CCCC4)ccnc2c1` yielded a half-maximal inhibitory concentration (IC50) of 0.0101 µM. Regarding `c1ccc(-c2ncc(NCN3CCCCC3)nn2)cc1`, the IC50 was 57 µM. For `c1ccc(-c2nnc(NCN3CCCCC3)s2)cc1`, the half-inhibitory concentration (IC50) turned out to be 54 µM. Regarding `c1ccc(-c2cnc(NCN3CCCCC3)nn2)cc1`, the IC50 is 60 µM. Regarding `c1ccc(C2=NNC(NCN3CCCCC3)=NC2)cc1`, inhibition was half-maximal at 47 µM (IC50). `CCCCCCNC(=O)Oc1cccc(CN(C)CCCOc2ccc3ccc(=O)oc3c2)c1`: the concentration for half-maximal inhibition (IC50) was determined as 0.013 µM. Molecule `Cc1cc(-c2ccccc2)nnc1NCCN1CCCCC1` yielded a concentration for half-maximal inhibition (IC50) of 5.4 µM.

As for `Cc1cc(-c2ccc(Cl)cc2)nnc1NCCN1CCCCC1`, the IC50 stood at 1.3 µM. In the case of `Cc1cc(-c2ccc3c(c2)OCO3)nnc1NCCN1CCCCC1`, the half-inhibitory concentration (IC50) stood at 1 µM.

For the molecule `CN(CCOCCNC(=S)NC(=O)c1ccc2c(c1)C(=O)c1ccccc1-2)Cc1ccccc1`, the IC50 was 0.03 µM. In turn, `CN(CCOCCNC(=S)NC(=O)c1ccc2c(c1)C(=O)c1ccccc1C2=O)Cc1ccccc1` showed an IC50 of 0.006 µM. `CN(CCOCCNC(=S)Nc1ccccn1)Cc1ccccc1` had an IC50 of 4 µM.

As to `CCCCCCNC(=O)Oc1cccc(CN(C)CCCOc2ccc3c(=O)ccoc3c2)c1`, inhibition was half-maximal at 0.021 µM (IC50). For `CCN1CCCC1CNc1ccc(-c2ccccc2)nn1` (configuration not stated), the IC50 is 62 µM.

As to `c1ccc(-c2ccc(NCCN3CCc4ccccc4C3)nn2)cc1`, the IC50 amounted to 83 µM. Molecule `c1ccc(-c2ccc(NCCCN3CCOCC3)nn2)cc1` yielded an IC50 of 410 µM. Molecule `CN(CCNc1ccc(-c2ccccc2)nn1)Cc1ccccc1` showed an IC50 of 170 µM. Take `Nc1c2c(nc3ccccc13)CCC2`: the midpoint of inhibition, the IC50, lay at 0.056 µM. Regarding `O=C1c2ccc([N+](=O)[O-])cc2C(=O)N1CCC1CCN(Cc2ccc(Cl)cc2)CC1`, the IC50 amounted to 0.24 µM. As to `CC(=O)N(C)CCC1CCN(Cc2ccccc2)CC1`, half-maximal inhibition (IC50) required 0.66 µM. Regarding `O=C(Nc1ccc2c(c1)C(=O)N(CCC1CCN(Cc3ccccc3)CC1)C2=O)c1ccccc1`, inhibition was half-maximal at 0.0012 µM (IC50). Consider `Nc1cccc2c1C(=O)N(CCC1CCN(Cc3ccccc3)CC1)C2=O`, for which the IC50 worked out at 0.011 µM. The value for `O=c1[nH]c2cc(Cl)ccc2c(=O)n1CCC1CCN(Cc2ccccc2)CC1` was 0.0045 µM. Take `O=C1c2cccnc2C(=O)N1CCC1CCN(Cc2ccccc2)CC1`: half-maximal inhibition (IC50) required 0.013 µM. The same measure for `O=c1c2ccccc2ncn1CCC1CCN(Cc2ccccc2)CC1`: 1.2 µM. The same measure for `COc1ccc2c(c1)C(=O)N(CCC1CCN(Cc3ccccc3)CC1)C2=O`: 0.008 µM; for `CN1CCC(CCN2C(=O)c3ccc([N+](=O)[O-])cc3C2=O)CC1`: 6.8 µM; for `O=C1Cc2ccccc2CN1CCC1CCN(Cc2ccccc2)CC1`: 0.017 µM. As for `O=C(c1ccccc1)c1ccc2c(c1)C(=O)N(CCC1CCN(Cc3ccccc3)CC1)C2=O`, the midpoint of inhibition, the IC50, lay at 0.0024 µM. Turning to `O=C1c2cccc([N+](=O)[O-])c2C(=O)N1CCC1CCN(Cc2ccccc2)CC1`, inhibition was half-maximal at 0.009 µM (IC50). Molecule `O=C1Cc2ccccc2C(=O)N1CCC1CCN(Cc2ccccc2)CC1` showed an IC50 of 0.023 µM. `O=c1c2ccccc2ccn1CCC1CCN(Cc2ccccc2)CC1` gave an IC50 of 1.1 µM.

`O=C1Nc2ccccc2CN1CCC1CCN(Cc2ccccc2)CC1` gave a 50% inhibitory concentration (IC50) of 0.013 µM. On to `O=C1CCCCN1CCC1CCN(Cc2ccccc2)CC1`, for which it took 0.27 µM to reach half-maximal inhibition (IC50). The same measure for `O=C(Nc1cccc2c1C(=O)N(CCC1CCN(Cc3ccccc3)CC1)C2=O)c1ccccc1`: 0.34 µM. The value for `O=C1c2ccccc2NCN1CCC1CCN(Cc2ccccc2)CC1` was 0.8 µM; that for `c1ccc(CN2CCC(CCN3CCc4ccccc4C3)CC2)cc1` was 1.6 µM. The value for `O=C1c2ccccc2CCN1CCC1CCN(Cc2ccccc2)CC1` was 1 µM. Regarding `Cc1cc(-c2ccc(Cl)cc2)nnc1NCCN1CCOCC1`, the IC50 was found to be 34 µM. The molecule `c1ccc(-c2ccc(NCCN3CCOCC3)nn2)cc1` registered an IC50 of 1000 µM.

Regarding `c1ccc(-c2ccc(NCCCCN3CCc4ccccc4C3)nn2)cc1`, 15 µM corresponded to half-maximal inhibition (IC50). In turn, `c1ccc(CN2CCC(CCNc3ccc(-c4ccccc4)nn3)CC2)cc1` had an IC50 of 0.12 µM. `NCCCCCCCCNc1c2c(nc3ccccc13)CCCC2` showed a half-maximal inhibitory concentration (IC50) of 0.089 µM. Regarding `c1ccc(-c2ccc(NCCN3CCCCC3)nn2)cc1`, the half-inhibitory concentration (IC50) is 13 µM.

With `CN(CCOCCNC(=S)NC(=O)c1ccccc1)C1CCCCC1`, the IC50 is 0.013 µM.

`O=C1c2ccc([N+](=O)[O-])cc2C(=O)N1CC1CCN(Cc2ccccc2)CC1` showed an IC50 of 3 µM. As for `COc1ccc(NC(=S)NCCOCCN(C)Cc2cccc([N+](=O)[O-])c2)cc1OC`, the IC50 came to 1.5 µM. In the case of `CCN(CCOCCNC(=O)NCc1ccccc1)CC1CCCCC1`, the concentration for half-maximal inhibition (IC50) came to 10 µM. The value for `O=C1c2ccccc2CN1CCC1CCN(Cc2ccccc2)CC1` was 0.098 µM; that for `COc1ccc(CN2CCC(CCN3C(=O)c4ccc([N+](=O)[O-])cc4C3=O)CC2)cc1` was 0.44 µM; that for `c1ccc(-c2cc(-c3ccccc3)c(NCCN3CCOCC3)nn2)cc1` was 260 µM. Molecule `O=C1c2ccc([N+](=O)[O-])cc2C(=O)N1C1CCN(Cc2ccccc2)CC1` gave a 50% inhibitory concentration (IC50) of 27 µM. The molecule `CN(CCOCCNC(=S)Nc1cccc2ccccc12)Cc1ccccc1` displayed a half-maximal inhibitory concentration (IC50) of 10 µM. `CC(=O)Nc1ccc2c(c1)C(=O)N(CCC1CCN(Cc3ccccc3)CC1)C2=O` displayed a half-inhibitory concentration (IC50) of 0.0028 µM. The value for `CN(CCOCCNC(=O)Nc1ccc([N+](=O)[O-])cc1)Cc1ccccc1` was 2.3 µM.

In turn, `CN(CCOCCNC(=S)NC1CCCCC1)Cc1ccccc1` showed an IC50 of 1.4 µM.

The term IC50 denotes the midpoint of a concentration-inhibition curve. A lower IC50 goes with inhibition by little substance.
